For test [1], the target named is T1, Lysine-specific demethylase 3A (Homo sapiens, UniProt Q9Y4C1).
T1 sequence (Q9Y4C1 whole entry): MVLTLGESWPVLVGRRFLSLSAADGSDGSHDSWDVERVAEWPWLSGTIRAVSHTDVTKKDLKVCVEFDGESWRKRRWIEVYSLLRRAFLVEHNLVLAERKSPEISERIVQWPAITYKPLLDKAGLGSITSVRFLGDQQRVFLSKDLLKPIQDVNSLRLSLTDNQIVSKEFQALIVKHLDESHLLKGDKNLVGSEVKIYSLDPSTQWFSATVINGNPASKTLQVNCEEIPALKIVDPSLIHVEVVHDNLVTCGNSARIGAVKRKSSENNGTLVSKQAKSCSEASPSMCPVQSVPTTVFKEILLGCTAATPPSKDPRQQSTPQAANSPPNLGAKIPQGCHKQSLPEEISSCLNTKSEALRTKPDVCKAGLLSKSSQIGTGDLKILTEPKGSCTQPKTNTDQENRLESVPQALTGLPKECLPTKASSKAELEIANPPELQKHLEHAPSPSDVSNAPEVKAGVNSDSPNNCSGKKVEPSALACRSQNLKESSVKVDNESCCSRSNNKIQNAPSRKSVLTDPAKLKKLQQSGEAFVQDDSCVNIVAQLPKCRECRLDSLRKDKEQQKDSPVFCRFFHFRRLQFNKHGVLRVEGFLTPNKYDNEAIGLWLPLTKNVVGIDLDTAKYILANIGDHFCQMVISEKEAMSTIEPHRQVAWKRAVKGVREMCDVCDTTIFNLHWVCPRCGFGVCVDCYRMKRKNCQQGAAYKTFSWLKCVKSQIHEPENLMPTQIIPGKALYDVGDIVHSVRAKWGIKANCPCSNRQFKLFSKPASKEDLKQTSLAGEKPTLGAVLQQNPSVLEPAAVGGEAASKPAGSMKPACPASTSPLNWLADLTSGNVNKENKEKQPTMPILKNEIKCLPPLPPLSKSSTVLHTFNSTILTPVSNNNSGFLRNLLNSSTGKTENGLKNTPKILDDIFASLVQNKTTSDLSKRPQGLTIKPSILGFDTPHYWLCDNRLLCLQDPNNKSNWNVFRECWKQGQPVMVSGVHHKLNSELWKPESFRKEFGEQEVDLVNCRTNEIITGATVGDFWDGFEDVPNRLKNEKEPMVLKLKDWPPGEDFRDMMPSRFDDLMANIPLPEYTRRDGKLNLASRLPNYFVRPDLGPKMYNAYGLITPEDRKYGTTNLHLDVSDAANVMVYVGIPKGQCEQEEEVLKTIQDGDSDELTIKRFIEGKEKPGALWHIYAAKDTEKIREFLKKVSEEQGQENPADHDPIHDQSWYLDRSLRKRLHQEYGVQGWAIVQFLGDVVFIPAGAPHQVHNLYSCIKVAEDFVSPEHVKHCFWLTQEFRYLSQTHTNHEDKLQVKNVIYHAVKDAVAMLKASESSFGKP
In words: Inhibition of KDM3A (2 to 1322 residues)(unknown origin) by Alphalisa assay. On the technique in general: Alpha assays give light when donor and acceptor beads are brought close together.

A short description of test [2]: Inhibition of epitope-tagged KDM5B (1 to 752 residues)(unknown origin) transfected in human U2OS cells using H3K4me2 peptide as substrate. Type of test: cell-based.
In test [3] the target is Lysine-specific demethylase 5A (Homo sapiens, UniProt P29375). In words: Inhibition of KDM5A (1 to 1090 residues)(unknown origin) by Alphalisa assay.
Lysine-specific demethylase 5A, sequence (P29375 whole entry, the tested form may be a part): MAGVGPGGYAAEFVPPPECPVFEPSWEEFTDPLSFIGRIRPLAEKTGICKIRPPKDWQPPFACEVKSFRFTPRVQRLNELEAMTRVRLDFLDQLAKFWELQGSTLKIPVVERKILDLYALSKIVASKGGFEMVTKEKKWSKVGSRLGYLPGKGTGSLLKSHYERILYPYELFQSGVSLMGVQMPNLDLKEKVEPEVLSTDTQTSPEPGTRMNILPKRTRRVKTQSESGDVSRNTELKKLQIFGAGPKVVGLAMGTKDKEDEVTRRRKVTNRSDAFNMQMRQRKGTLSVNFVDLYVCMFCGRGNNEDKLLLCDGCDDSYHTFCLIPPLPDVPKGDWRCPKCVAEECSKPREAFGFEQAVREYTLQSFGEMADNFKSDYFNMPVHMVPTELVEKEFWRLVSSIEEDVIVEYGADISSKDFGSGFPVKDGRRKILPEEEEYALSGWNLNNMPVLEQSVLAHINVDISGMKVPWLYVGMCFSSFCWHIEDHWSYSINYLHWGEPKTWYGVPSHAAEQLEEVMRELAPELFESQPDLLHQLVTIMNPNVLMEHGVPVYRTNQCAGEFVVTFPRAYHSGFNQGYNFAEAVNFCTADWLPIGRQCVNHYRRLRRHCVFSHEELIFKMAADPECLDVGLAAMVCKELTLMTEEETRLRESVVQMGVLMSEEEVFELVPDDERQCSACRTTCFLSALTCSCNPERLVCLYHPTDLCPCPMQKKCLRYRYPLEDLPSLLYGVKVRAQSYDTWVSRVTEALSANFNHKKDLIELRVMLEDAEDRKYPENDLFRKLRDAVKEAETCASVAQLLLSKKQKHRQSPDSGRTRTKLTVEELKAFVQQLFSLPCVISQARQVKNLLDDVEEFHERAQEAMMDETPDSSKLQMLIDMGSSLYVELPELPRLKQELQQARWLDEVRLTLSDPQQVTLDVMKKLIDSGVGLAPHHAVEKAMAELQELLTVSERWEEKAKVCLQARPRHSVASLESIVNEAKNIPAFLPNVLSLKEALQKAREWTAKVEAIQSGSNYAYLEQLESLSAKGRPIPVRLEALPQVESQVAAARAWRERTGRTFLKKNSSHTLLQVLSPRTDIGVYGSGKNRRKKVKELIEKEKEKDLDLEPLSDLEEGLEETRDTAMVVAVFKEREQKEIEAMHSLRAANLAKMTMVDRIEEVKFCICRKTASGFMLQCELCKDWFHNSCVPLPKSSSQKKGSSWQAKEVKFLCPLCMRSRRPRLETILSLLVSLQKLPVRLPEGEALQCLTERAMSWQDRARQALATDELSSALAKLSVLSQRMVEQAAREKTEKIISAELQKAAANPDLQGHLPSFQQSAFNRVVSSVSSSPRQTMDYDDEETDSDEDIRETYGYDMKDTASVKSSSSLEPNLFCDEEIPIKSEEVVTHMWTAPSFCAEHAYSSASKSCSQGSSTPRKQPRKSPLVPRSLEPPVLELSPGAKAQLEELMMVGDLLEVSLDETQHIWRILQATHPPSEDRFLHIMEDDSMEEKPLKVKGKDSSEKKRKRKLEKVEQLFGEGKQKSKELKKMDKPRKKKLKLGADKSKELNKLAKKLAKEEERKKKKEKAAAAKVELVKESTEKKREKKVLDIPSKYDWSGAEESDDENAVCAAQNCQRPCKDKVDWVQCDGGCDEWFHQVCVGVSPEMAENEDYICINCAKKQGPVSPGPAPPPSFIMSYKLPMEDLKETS

For the molecule `CCOC(=O)CCNc1cc(N2CCc3ccccc3CC2)nc(-c2ccccn2)n1`, the values for the IC50 in test [1] and in test [2] were 8.5 µM and 3.1 µM, respectively.

`O=C(O)CCNc1cc(N2CCc3ccccc3CC2)nc(-c2ccccn2)n1`: in test [3], half-maximal inhibition (IC50) required 6.8 µM. That is a single-digit micromolar value.

What is called IC50 is the concentration needed to halve the response being measured.

The record behind these values is ChEMBL document CHEMBL5647690, “Inhibition of demethylases by GSK-J1/J4” (Nature, 2014).
